Laboratory results as given in patent US20090239846A1, “Novel Compounds” (Glaxo Group Limited, priority 2005, published 2009).
Where a name gives a salt, the structure may show the parent alone.

Each compound was assayed against T1, Recombinant human p38α (Homo sapiens, UniProt Q16539) (assay: Fluorescence anisotropy kinase binding assay (standard or low volume)). Conditions: 12 nM p38α, 5 nM fluorescent ligand.
T1 construct: GST; made in house
Source text: (§1) The concentration of kinase enzyme should preferably be >2×Kf. The concentration of fluorescent ligand required will depend on the instrumentation used, and the fluorescent and physicochemical properties. The concentration used must be lower than the concentration of kinase enzyme, and preferably less than half the kinase enzyme concentration.
The fluorescent ligand is the following compound:
[drawing 329] • which is derived from 5-[2-(4-aminomethylphenyl)-5-pyridin-4-yl-1H-imidazol-4-yl]-2-chlorophenol and rhodamine green. Recombinant human p38α was expressed as a GST-tagged protein. To activate this protein, 3.5 μM unactivated p38α was incubated in 50 mM Tris-HCl pH 7.5, 0.1 mM EGTA, 0.1% 2-mercaptoethanol, 0.1 mM sodium vanadate, 10 mM MgAc, 0.1 mM ATP with 200 nM MBP-MKK6 DD at 30 degrees for 30 mins. Following activation p38α was re-purified and the activity assessed using a standard filter-binding assay. Protocol: All components are dissolved in buffer of composition 62.5 mM HEPES, pH 7.5, 1.25 mM CHAPS, 1 mM DTT, 12.5 mM MgCl2 with final concentrations of 12 nM p38α and 5 nM fluorescent ligand. 30 μl of this reaction mixture is added to wells containing 1 μl of various concentrations of test compound (0.28 nM-16.6 μM final) or DMSO vehicle (3% final) in NUNC 384 well black microtitre plate and equilibrated for 30-60 mins at room temperature. Fluorescence anisotropy is read in Molecular Devices Acquest (excitation 485 nm/emission 535 nm). Definitions: Ki=dissociation constant for inhibitor binding • Kf=dissociation constant for fluorescent ligand binding
as §1, with “2×Kf.” for “>2×Kf.”, “concentration. The fluorescent ligand is the following compound:” for “concentration.”
which is derived from 5-[2-(4-aminomethylphenyl)-5-pyridin-4-yl-1H-imidazol-4-yl]-2-chlorophenol and rhodamine green. Recombinant human p38α was expressed as a GST-tagged protein. To activate this protein, 3.5 μM unactivated p38α was incubated in 50 mM Tris-HCl pH 7.5, 0.1 mM EGTA, 0.1% 2-mercaptoethanol, 0.1 mM sodium vanadate, 10 mM MgAc, 0.1 mM ATP with 200 nM MBP-MKK6 DD at 30 degrees for 30 mins. Following activation p38α was re-purified and the activity assessed using a standard filter-binding assay. Protocol: All components are dissolved in buffer of composition 62.5 mM HEPES, pH 7.5, 1.25 mM CHAPS, 1 mM DTT, 12.5 mM MgCl2 with final concentrations of 12 nM p38α and 5 nM fluorescent ligand. […] of this reaction mixture is added to wells containing 0.1 μl of various concentrations of test compound (0.02 nM-25 μM final) or DMSO vehicle (1.7% final) in Greiner low volume 384 well black microtitre plate and equilibrated for 30-60 mins at room temperature. Fluorescence anisotropy is read in Molecular Devices Acquest (excitation 485 nm/emission 535 nm). Definitions: Ki dissociation constant for inhibitor binding • Kf=dissociation constant for fluorescent ligand binding It is noted that there are two assay formats shown above for the Fluorescence anisotropy kinase binding assay. The only difference between these two assays is the volume used and the plate type. […] The results described herein may have been performed in either assay format and are not differentiated as to which.

T1 sequence (Q16539 whole entry): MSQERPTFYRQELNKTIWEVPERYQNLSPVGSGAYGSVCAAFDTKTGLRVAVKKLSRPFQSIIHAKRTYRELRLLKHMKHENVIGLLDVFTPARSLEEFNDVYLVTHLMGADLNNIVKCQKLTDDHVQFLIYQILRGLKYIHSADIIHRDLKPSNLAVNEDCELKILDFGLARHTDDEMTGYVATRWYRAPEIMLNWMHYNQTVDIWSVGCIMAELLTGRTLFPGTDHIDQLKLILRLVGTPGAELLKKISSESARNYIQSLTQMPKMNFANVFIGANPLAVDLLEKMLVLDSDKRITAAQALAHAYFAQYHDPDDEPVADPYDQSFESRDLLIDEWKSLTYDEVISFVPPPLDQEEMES

**Q.** `CSc1nc(-c2cc(NC(=O)c3ccsc3)ccc2C)c2c(n1)N(c1c(F)cccc1F)C(=O)NC2` [7(c), N-{3-[8-(2,6-Difluorophenyl)-2-(methylthio)-7-oxo-5,6,7,8-tetrahydropyrimido[4,5-d]pyrimidin-4-yl]-4-methylphenyl}-3-thiophenecarboxamide] was tested. Which “active in the assay (pIC50, p38α binding)” value did it give?
**A.** active

These compounds were tested on influx of neutrophils to the lung in LPS-challenged rats (assay: Rat LPS neutrophilia model). Conditions: LPS aerosol, lavage 4 hours later, in at least one of the range of conditions tested, significance p<0.05.
Assay type: in vivo
Experimental: The effect of compounds on the influx of neutrophils to the lung in LPS-challenged rats is evaluated as follows. The test compound is suspended in one of the following solutions: 0.5% tween 80/PBS, 0.5% tween 80/saline, 10% EtOH/saline (with pH adjusted to 2.0, or 8.0 with HCl, or unadjusted), Saline (pH 2.0, 6.5 or 8.0, 0.5% Tragacanth, 1% DMSO/20% Encapsin/Saline, or acidified 5% Tragacanth. The suspension process may be aided by the use of a glass homogenizer. For intratracheal administration, the animals are anesthetized with inhaled isoflurane and placed in a supine position, the trachea is intubated with a steel gavage needle (1.5 inch, 22 gauge, small ball) or a Penn-Century Microsprayer Aerosolizer (model IA-LB) and 200 ul of dosing solution is delivered. The animals are visually monitored during the recovery process, which typically occurs within two minutes.
Rats treated with compound or vehicle (15 min-24 hours pretreatment) are exposed to an LPS aerosol (100 ug/ml) for 15 min. Four hours later the rats are euthanized with pentobarbital (100 mg/kg, i.p.) and the airways are lavaged with 5 washes of 5 ml of phosphate buffered saline. The harvested cells are stained (Diffquick) and counted to determine total and differential cell data. In a typical study, macrophages represent 40-70% of the total cells, and polymorphonuclear cells 30-60% of the total cells. Inhibition of neutrophil levels relative to no compound controls is calculated based on the differential counts.
The assay has varying conditions, such as concentration, pretreat time, form of the compound (crystalline, amorphous, salts, micronised), and a wet or dry application of the compound.
The data is obtained as % inhibition using a particular concentration and pretreat time.

**Q.** Which inhibition of neutrophilia does the source give for `CSc1nc(-c2cc(NC(=O)c3ccsc3)ccc2C)c2c(n1)N(c1c(F)cccc1F)C(=O)NC2` [7(c), N-{3-[8-(2,6-Difluorophenyl)-2-(methylthio)-7-oxo-5,6,7,8-tetrahydropyrimido[4,5-d]pyrimidin-4-yl]-4-methylphenyl}-3-thiophenecarboxamide] here?
**A.** inactive

**Q.** `CN(C)CCNc1nc(-c2cccc(C(=O)Nc3nccs3)c2)c2c(n1)N(c1c(F)cccc1F)C(=O)NC2` [Example 92, 3-(8-(2,6-difluorophenyl)-2-{[2-(dimethylamino)ethyl]amino}-7-oxo-5,6,7,8-tetrahydropyrimido[4,5-d]pyrimidin-4-yl)-N-1,3-thiazol-2-ylbenzamide] was tested. Which inhibition of neutrophilia did it give?
**A.** statistically significant inhibition of neutrophilia

**Q.** Which inhibition of neutrophilia does the source give for `CN(C)CCNc1nc(-c2cccc(C(=O)Nc3ccc(F)cc3)c2)c2c(n1)N(c1c(F)cccc1F)C(=O)NC2` [Example 93] here?
**A.** statistically nonsignificant inhibition of neutrophilia

**Q.** Which inhibition of neutrophilia does the source give for `Cc1c(F)cc(C(=O)Nc2ccccc2)cc1-c1nc(NCCN(C)C)nc2c1CNC(=O)N2c1c(F)cccc1F` [Example 112, 3-(8-(2,6-difluorophenyl)-2-{[2-(dimethylamino)ethyl]amino}-7-oxo-5,6,7,8-tetrahydropyrimido[4,5-d]pyrimidin-4-yl)-5-fluoro-4-methyl-N-phenylbenzamide] here?
**A.** statistically significant inhibition of neutrophilia

**Q.** Which inhibition of neutrophilia does the source give for `Cc1ccc(C(=O)Nc2nccs2)cc1-c1nc(NCCCN(C)C)nc2c1CNC(=O)N2c1c(F)cccc1F` [Example 119, 3-(8-(2,6-difluorophenyl)-2-{[3-(dimethylamino)propyl]amino}-7-oxo-5,6,7,8-tetrahydropyrimido[4,5-d]pyrimidin-4-yl)-4-methyl-N-1,3-thiazol-2-ylbenzamide] here?
**A.** statistically significant inhibition of neutrophilia

**Q.** Which inhibition of neutrophilia does the source give for `CCN(CC)CCCNc1nc(-c2cc(C(=O)Nc3nccs3)ccc2C)c2c(n1)N(c1c(F)cccc1F)C(=O)NC2` [Example 120, 3-[2-{[3-(diethylamino)propyl]amino}-8-(2,6-difluorophenyl)-7-oxo-5,6,7,8-tetrahydropyrimido[4,5-d]pyrimidin-4-yl]-4-methyl-N-1,3-thiazol-2-ylbenzamide] here?
**A.** statistically significant inhibition of neutrophilia

**Q.** How did the inhibition of neutrophilia turn out when `Cc1ccc(C(=O)Nc2nccs2)cc1-c1nc(N(C)CCCN(C)C)nc2c1CNC(=O)N2c1c(F)cccc1F` [Example 124, 3-{8-(2,6-difluorophenyl)-2-[[3-(dimethylamino)propyl](methyl)amino]-7-oxo-5,6,7,8-tetrahydropyrimido[4,5-d]pyrimidin-4-yl}-4-methyl-N-1,3-thiazol-2-ylbenzamide] was run?
**A.** statistically nonsignificant inhibition of neutrophilia

**Q.** How did the inhibition of neutrophilia turn out when `CSc1ccc(NC(=O)c2ccc(C)c(-c3nc(NCCN(C)C)nc4c3CNC(=O)N4c3c(F)cccc3F)c2)cc1` [Example 127, 3-(8-(2,6-difluorophenyl)-2-{[2-(dimethylamino)ethyl]amino}-7-oxo-5,6,7,8-tetrahydropyrimido[4,5-d]pyrimidin-4-yl)-4-methyl-N-[4-(methylthio)-phenyl]benzamide] was run?
**A.** statistically significant inhibition of neutrophilia

**Q.** `Cc1ccc(C(=O)Nc2nccs2)cc1-c1nc(NC[C@H](C)O)nc2c1CNC(=O)N2c1c(F)cccc1F` [Example 134, 3-(8-(2,6-difluorophenyl)-2-{[(2S)-2-hydroxypropyl]amino}-7-oxo-5,6,7,8-tetrahydropyrimido[4,5-d]pyrimidin-4-yl)-4-methyl-N-1,3-thiazol-2-ylbenzamide] was tested. Which inhibition of neutrophilia did it give?
**A.** statistically nonsignificant inhibition of neutrophilia

**Q.** How did the inhibition of neutrophilia turn out when `Cc1ccc(C(=O)Nc2ccccc2)cc1-c1nc(NCCN(C)C)nc2c1CNC(=O)N2c1c(F)cccc1F` [Example 137, 3-(8-(2,6-difluorophenyl)-2-{[2-(dimethylamino)ethyl]amino}-7-oxo-5,6,7,8-tetrahydropyrimido[4,5-d]pyrimidin-4-yl)-4-methyl-N-phenylbenzamide] was run?
**A.** statistically significant inhibition of neutrophilia

**Q.** Which inhibition of neutrophilia does the source give for `Cc1ccc(C(=O)Nc2ccc(F)c(F)c2)cc1-c1nc(NCCN(C)C)nc2c1CNC(=O)N2c1c(F)cccc1F` [Example 138, N-(3,4-difluorophenyl)-3-(8-(2,6-difluorophenyl)-2-{[2-(dimethylamino)-ethyl]amino}-7-oxo-5,6,7,8-tetrahydropyrimido[4,5-d]pyrimidin-4-yl)-4-methylbenzamide] here?
**A.** statistically significant inhibition of neutrophilia

**Q.** With `COc1ccc(NC(=O)c2ccc(C)c(-c3nc(NCCN(C)C)nc4c3CNC(=O)N4c3c(F)cccc3F)c2)cn1` [Example 140, 3-(8-(2,6-difluorophenyl)-2-{[2-(dimethylamino)ethyl]amino}-7-oxo-5,6,7,8-tetrahydropyrimido[4,5-d]pyrimidin-4-yl)-4-methyl-N-[6-(methyloxy)-3-pyridinyl]benzamide] as the compound, how does the inhibition of neutrophilia read?
**A.** statistically significant inhibition of neutrophilia

**Q.** For `CCc1ccc(C(=O)Nc2nccs2)cc1-c1nc(NCCN(C)C)nc2c1CNC(=O)N2c1c(F)cccc1F` [Example 144, 3-(8-(2,6-difluorophenyl)-2-{[2-(dimethylamino)ethyl]amino}-7-oxo-5,6,7,8-tetrahydropyrimido[4,5-d]pyrimidin-4-yl)-4-ethyl-N-1,3-thiazol-2-ylbenzamide trifluoroacetate], which inhibition of neutrophilia is on record?
**A.** statistically significant inhibition of neutrophilia

**Q.** Which inhibition of neutrophilia does the source give for `Cc1ccc(C(=O)NC(C)C)cc1-c1nc(N2CCCN(C)CC2)nc2c1CNC(=O)N2c1c(F)cccc1F` [Example 179, 3-[8-(2,6-difluorophenyl)-2-(4-methylhexahydro-1H-1,4-diazepin-1-yl)-7-oxo-5,6,7,8-tetrahydropyrimido[4,5-d]pyrimidin-4-yl]-4-methyl-N-(1-methylethyl)benzamide trifluoroacetate] here?
**A.** statistically nonsignificant inhibition of neutrophilia

**Q.** How did the inhibition of neutrophilia turn out when `Cc1ccc(C(=O)NC(C)C)cc1-c1nc(NC2CCN(Cc3ccccc3)CC2)nc2c1CNC(=O)N2c1c(F)cccc1F` [Example 200, 3-(8-(2,6-difluorophenyl)-7-oxo-2-{[1-(phenylmethyl)-4-piperidinyl]amino}-5,6,718-tetrahydropyrimido[4,5-d]pyrimidin-4-yl)-4-methyl-N-(1-methylethyl)benzamide] was run?
**A.** statistically significant inhibition of neutrophilia
